Source: patent publication US20060160851A1, “Substituted piperidine carbamates” (Novo Nordisk A/S, priority 2003, published 2006)

Target: T1, hormone sensitive lipase (Homo sapiens, UniProt Q05469)
T1 construct: made in house
T1 sequence (Q05469 1-1076): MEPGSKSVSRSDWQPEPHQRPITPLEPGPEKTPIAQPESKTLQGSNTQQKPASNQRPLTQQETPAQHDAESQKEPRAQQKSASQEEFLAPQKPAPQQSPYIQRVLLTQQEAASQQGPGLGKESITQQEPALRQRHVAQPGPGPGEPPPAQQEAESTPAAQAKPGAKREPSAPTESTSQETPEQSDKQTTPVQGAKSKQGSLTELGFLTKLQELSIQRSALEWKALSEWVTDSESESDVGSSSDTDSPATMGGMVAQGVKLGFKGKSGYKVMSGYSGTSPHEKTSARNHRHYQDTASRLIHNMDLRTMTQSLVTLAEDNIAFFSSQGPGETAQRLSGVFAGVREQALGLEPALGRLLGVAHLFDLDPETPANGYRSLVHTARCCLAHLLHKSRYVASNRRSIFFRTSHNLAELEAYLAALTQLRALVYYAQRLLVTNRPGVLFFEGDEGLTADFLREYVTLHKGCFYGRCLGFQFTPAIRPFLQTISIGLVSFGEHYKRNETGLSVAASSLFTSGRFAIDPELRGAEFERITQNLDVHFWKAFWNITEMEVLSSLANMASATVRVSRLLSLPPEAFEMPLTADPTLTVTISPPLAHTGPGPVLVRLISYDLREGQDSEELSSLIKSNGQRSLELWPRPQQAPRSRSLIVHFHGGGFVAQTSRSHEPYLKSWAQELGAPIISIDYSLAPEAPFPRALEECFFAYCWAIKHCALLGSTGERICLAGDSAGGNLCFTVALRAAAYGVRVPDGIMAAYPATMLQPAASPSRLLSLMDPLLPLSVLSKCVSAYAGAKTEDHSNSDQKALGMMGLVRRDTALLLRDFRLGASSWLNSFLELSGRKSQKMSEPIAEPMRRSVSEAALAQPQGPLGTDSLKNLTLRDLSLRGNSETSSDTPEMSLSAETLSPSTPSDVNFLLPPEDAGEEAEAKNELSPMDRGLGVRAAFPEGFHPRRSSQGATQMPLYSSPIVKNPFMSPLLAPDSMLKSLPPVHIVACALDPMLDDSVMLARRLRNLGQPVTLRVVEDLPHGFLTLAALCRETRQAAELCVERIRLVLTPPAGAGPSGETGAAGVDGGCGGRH
Assay: Assay 3190.1: percent inhibition of hormone sensitive lipase by compound at 10 μM (fluorochrome-labeled triacylglyceride emulsion, HSL_FL)
Type: biochemical
Conditions: 10 μM sample concentration; % activity relative to non-inhibited sample (no compound); 30 min preincubation at 25° C., 120 min incubation at 37° C.
From the text: The Hormone-sensitive lipase was provided by Dr. Cecilia Holm, from Lund University Sweden or produced and purified by Novo Nordisk (NN) using the reagents and protocols used by Dr. Holm. The substrates used are: ^3H-labeled triolein (TO) from Amersham, Buckinghamshire, U.K. cat No. TRA191; 5-20 Ci/mmol dissolved in toluene, triolein (Sigma, Cat. No. T-1740), fluorochrome-labeled triacylglyceride (cis-octadec-9-enoic acid 2-[12-(7-nitrobenzo[1,2,5]oxadiazol-4-ylamino)dodecanoyloxy]-1-cis-octadec-9-enoyloxymethyl-ethyl ester) prepared by Novo Nordisk (NN) by conventional methods, and 1,3-(di[^3H]-stearin), 2-(PEG-Biotin)glycerol prepared in collaboration with Amersham Pharmacia Biotech, UK and described in WO 01/073442. Phosphatidyl choline (PC) and phosphatidyl inositol (PI) are from Sigma (St Luis Mo. cat. Nos. P-3556 and P-5954 respectively). All other reagents are of commercial grade and obtained from various commercial sources.
3190.1: Assay for determination of percent inhibition of hormone sensitive lipase by compound at 10 μM sample concentration.
A lipid emulsion with fluorochrome-labeled triacylglyceride and phospholipid is used as substrate with a standard concentration of highly purified HSL (12 μg/mL initial concentration corresponding to 600 ng/mL final concentration). BSA is added as product acceptor receptor. The transfer of the fluorochrome from the lipid phase to the water (BSA) phase changes the fluorescent properties of the fluorochrome. The changes can be monitored on a fluorimeter with an excitation wavelength of 450 nm and an emission wavelength of 545 nm.
Compound and HSL (20 μL compound, 10 μL enzyme and 70 μL PED-BSA buffer) is pre-incubated for 30 min at 25° C. before addition of substrate (100 μL). Amount of formed product is measured after 120 min incubation at 37° C.
Results are given as percent activity relative to a non-inhibited sample (no compound).

Compound	Test 3190.1 HSL_FL % ACTIVITY [%]
4-(4-Carboxymethyl-phenoxy)-piperidine-1-carboxylic acid 4-(2-phenoxy-ethyl)-phenyl ester [Example 92]	3
4-(4-Carboxymethyl-phenoxy)-piperidine-1-carboxylic acid 4-[2-(1-methyl-1H-tetrazol-5-yloxy)-ethyl]-phenyl ester [Example 94]	6
CCOC(=O)CCc1ccc(OC2CCN(C(=O)Oc3ccc(Oc4ccc(C(F)(F)F)cn4)cc3)CC2)cc1 [Example 31, -[4-(2-Ethoxycarbonyl-ethyl)-phenoxy]-piperidine-1-carboxylic acid 4-(5-trifluoromethyl-pyridin-2-yloxy)-phenyl ester]	0

Same assay, conditions: 10 μM sample concentration; % activity relative to non-inhibited sample (no compound); 30 min preincubation at 25° C., 120 min incubation at 37° C.; read-out: Test 3190.1 HSL_FL % ACTIVITY

Compound	activity at 10 µM [%]
CN(CCC1CCN(C(=O)Oc2ccc(Oc3ccc(C(F)(F)F)cn3)cc2)CC1)Cc1ccccc1 [Example 1, 4-[2-(Benzyl-methyl-amino)-ethyl]-piperidine-1-carboxylic acid 4-(5-trifluoromethyl-pyridin-2-yloxy)-phenyl ester]	1
O=C(Oc1ccc(Oc2ccc(C(F)(F)F)cn2)cc1)N1CCC(Sc2nccn2-c2cccnc2)CC1 [Example 3, 4-(1-Pyridin-3-yl-1H-imidazol-2-ylsulfanyl)-piperidine-1-carboxylic acid 4-(5-trifluoromethyl-pyridin-2-yloxy)-phenyl ester]	5
O=C(Oc1ccc(Oc2ccc(C(F)(F)F)cn2)cc1)N1CCC(Oc2cccnc2)CC1 [Example 10, 4-(Pyridin-3-yloxy)-piperidine-1-carboxylic acid 4-(5-trifluoromethyl-pyridin-2-yloxy)-phenyl ester]	1
O=C(Oc1ccc(Oc2ccc(C(F)(F)F)cn2)cc1)N1CCC(On2nccc2Sc2ccccc2)CC1 [Example 12, 4-(5-Phenylsulfanyl-pyrazol-1-yloxy)-piperidine-1-carboxylic acid 4-(5-trifluoromethyl-pyridin-2-yloxy)-phenyl ester]	11
O=C(Oc1ccc(Oc2ccc(C(F)(F)F)cn2)cc1)N1CCC(Oc2ccc(N3CCN(C4CCCC4)CC3)cc2)CC1 [Example 22, 4-[4-(4-Cyclopentyl-piperazin-1-yl)-phenoxy]-piperidine-1-carboxylic acid 4-(5-trifluoromethyl-pyridin-2-yloxy)-phenyl ester]	4
O=C(O)c1ccc(-c2ccc(OC3CCN(C(=O)Oc4ccc(Oc5ccc(C(F)(F)F)cn5)cc4)CC3)cc2)cc1 [Example 35, 4-(4′-Carboxy-biphenyl-4-yloxy)-piperidine-1-carboxylic acid 4-(5-trifluoromethyl-pyridin-2-yloxy)-phenyl ester]	14
O=C(O)c1coc(-c2ccc(OC3CCN(C(=O)Oc4ccc(Oc5ccc(C(F)(F)F)cn5)cc4)CC3)cc2)n1 [Example 36, 4-[4-(4-Carboxy-oxazol-2-yl)-phenoxy]-piperidine-1-carboxylic acid 4-(5-trifluoromethyl-pyridin-2-yloxy)-phenyl ester]	8
O=C(O)CCc1ccc(OC2CCN(C(=O)Oc3ccc(Oc4ccc(C(F)(F)F)cn4)cc3)CC2)cc1 [Example 37, 4-[4-(2-Carboxy-ethyl)-phenoxy]-piperidine-1-carboxylic acid 4-(5-trifluoromethyl-pyridin-2-yloxy)-phenyl ester]	1
O=C(O)c1ccc(OC2CCN(C(=O)Oc3ccc(Oc4ccc(C(F)(F)F)cn4)cc3)CC2)cc1 [Example 39, 4-(4-Carboxy-phenoxy)-piperidine-1-carboxylic acid 4-(5-trifluoromethyl-pyridin-2-yloxy)-phenyl ester]	5
O=C(O)Cc1ccc(OCC2CCN(C(=O)Oc3ccc(Oc4ccc(C(F)(F)F)cn4)cc3)CC2)cc1 [Example 44, 4-(4-Carboxymethyl-phenoxymethyl)-piperidine-1-carboxylic acid 4-(5-trifluoromethyl-pyridin-2-yloxy)-phenyl ester]	5
